Measured values: the supplement of paper PMC10307832

Columns and labels:
Experiment in all cases: relative viability (nuclei count vs DMSO), 5 days (fraction); higher = more cells survive
[1] = compound: C1=CC2=C(C=C(C(=C2N=C1)O)N=NC3=CC4=C(C=C3)C=C(C=C4)S(=O)(=O)O)S(=O)(=O)O + Cc1nc(NC(=O)N2CCC[C@H]2C(N)=O)sc1-c1ccnc(C(C)(C)C(F)(F)F)c1 [Alpelisib] (partner 2 µM)
Outline: (§1)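 One day after seeding in 1536-well plates, lung cancer cell lines were dosed by pin tool. Dosing was either single-drug or a fixed anchor-drug dose plus five library-drug doses (not always all listed) in √10 steps. After 5 days, nuclei were stained in one fix-and-stain step and counted on 4× images, and relative viability is the nuclei count of treated wells over that of vehicle wells, given as the median of duplicate plates.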

AT-7519 + Bortezomib = compound: O=C(NC1CCNCC1)c1n[nH]cc1NC(=O)c1c(Cl)cccc1Cl [AT-7519] + CC(C)C[C@H](NC(=O)[C@H](Cc1ccccc1)NC(=O)c1cnccn1)B(O)O [Bortezomib] (partner 0.002 µM)
Outline: as §1

AT-7519 + AZD7762 = compound: O=C(NC1CCNCC1)c1n[nH]cc1NC(=O)c1c(Cl)cccc1Cl [AT-7519] + NC(=O)Nc1cc(-c2cccc(F)c2)sc1C(=O)N[C@H]1CCCNC1 [AZD7762] (partner 0.2 µM)
Outline: as §1

AT-7519 + Palbociclib = compound: O=C(NC1CCNCC1)c1n[nH]cc1NC(=O)c1c(Cl)cccc1Cl [AT-7519] + CC(=O)c1c(C)c2cnc(Nc3ccc(N4CCNCC4)cn3)nc2n(C2CCCC2)c1=O [Palbociclib] (partner 0.5 µM)
Outline: as §1

Row | Cell Line | relative viability ([1]; first compound 0.08 µM) | relative viability ([1]; first compound 0.253 µM) | relative viability ([1]; first compound 0.8 µM) | relative viability ([1]; first compound 2.53 µM) | relative viability ([1]; first compound 8 µM) | relative viability (AT-7519 + Bortezomib; first compound 0.01 µM) | relative viability (AT-7519 + Bortezomib; first compound 0.03162 µM) | relative viability (AT-7519 + Bortezomib; first compound 0.3162 µM) | relative viability (AT-7519 + Bortezomib; first compound 1 µM) | relative viability (AT-7519 + AZD7762; first compound 0.01 µM) | relative viability (AT-7519 + AZD7762; first compound 0.03162 µM) | relative viability (AT-7519 + AZD7762; first compound 0.3162 µM) | relative viability (AT-7519 + AZD7762; first compound 1 µM) | relative viability (AT-7519 + Palbociclib; first compound 0.01 µM) | relative viability (AT-7519 + Palbociclib; first compound 0.03162 µM) | relative viability (AT-7519 + Palbociclib; first compound 0.3162 µM) | relative viability (AT-7519 + Palbociclib; first compound 1 µM)
1 | NCI-H596 | 0.48 | 0.454 | 0.575 | 0.475 | 0.482 | 1.08 | 1.13 | 0.882 | 1.03 | 1.22 | 1.06 | 0.982 | 0.938 |  |  |  | 
2 | NCI-H2023 | 0.606 | 0.671 | 0.636 | 0.564 | 0.624 | 1.12 | 0.985 | 0.855 | 0.503 |  |  |  |  | 0.393 | 0.401 | 0.243 | 0.0824
3 | NCI-H1944 | 0.842 | 0.718 | 0.832 | 0.858 | 0.838 |  |  |  |  | 0.528 | 0.472 | 0.699 | 0.479 | 0.314 | 0.322 | 0.292 | 0.268
4 | NCI-H1793 | 0.871 | 0.706 |  | 0.858 | 0.652 |  |  |  |  | 0.578 | 0.573 | 0.409 | 0.543 | 0.309 | 0.299 | 0.305 | 0.285
5 | NCI-H520 | 0.907 | 0.846 | 0.923 | 0.869 | 0.995 | 0.745 | 0.628 | 0.413 | 0.323 |  |  |  |  | 0.226 | 0.197 | 0.209 | 0.194
6 | A549 | 0.733 | 0.708 | 0.665 | 0.728 | 0.662 |  |  |  |  |  |  |  |  |  |  |  | 
7 | NCI-H358 | 0.902 | 0.927 | 0.776 | 0.833 | 0.354 |  |  |  |  | 0.423 | 0.558 | 0.521 | 0.37 | 0.138 | 0.139 | 0.108 | 0.119
8 | NCI-H1563 | 0.931 | 0.94 | 1.07 | 1.11 | 1.1 | 0.874 | 0.905 | 0.901 | 0.85 |  |  |  |  |  |  |  | 
9 | NCI-H1395 | 1.08 | 1.21 | 1.09 | 1.06 | 1.23 |  |  |  |  | 0.359 | 0.391 | 0.425 | 0.348 | 0.561 | 0.699 | 0.573 | 0.504
10 | NCI-H2009 | 1.19 | 1.05 | 1.1 | 1.16 | 1.1 | 1.08 | 0.908 | 0.96 | 0.704 |  |  |  |  | 0.209 | 0.2 | 0.19 | 0.18
11 | NCI-H522 |  |  |  |  |  |  |  |  |  | 1 | 0.661 | 0.859 | 0.904 | 0.969 | 0.967 | 0.995 | 0.788
12 | IA-LM | 0.85 | 0.561 | 0.751 | 0.965 | 0.832 | 0.927 | 0.979 | 0.781 | 0.302 |  |  |  |  |  |  |  | 
13 | SK-LU-1 | 1.06 | 0.968 | 0.98 | 1.1 | 1.18 | 1.08 | 1.14 |  | 1.15 |  |  |  |  | 0.38 | 0.361 | 0.361 | 0.311
14 | NCI-H1703 | 0.369 | 0.266 | 0.39 | 0.385 | 0.409 | 0.392 | 0.323 | 0.182 | 0.151 |  |  | 0.152 | 0.148 |  |  |  | 
15 | SW 900 |  |  |  |  |  |  |  |  |  | 0.637 | 0.616 | 0.677 | 0.477 | 0.552 | 0.595 | 0.512 | 0.463
